US20260234161A1, “RIFABUTIN ANALOGS FOR THE TREATMENT OF BACTERIAL DISEASES” (BIOVERSYS AG, priority 2023, published 2026)
Values after ≈ are worked out from the molar mass of the structure shown. Like-named read-outs stand apart in the source and are kept apart here.

Legend:
Format in all cases: cell-based
[1] = tested on: M. abscessus (ATCC 19977); experiment: MIC by broth microdilution, M. abscessus in Middlebrook 7H9 broth + ADC; details: Mycobacteroides abscessus, ATCC19977, 96 h, read-out: MIC M. abscessus 7H9
Description: (§1) MIC values were determined by broth microdilution method according to the CLSI guidelines with the following exceptions: MIC against A. baumannii was performed in RPMI medium supplemented with 10% FCS and MIC against M. abscessus was performed in Middlebrook 7H9 broth supplemented with Middlebrook ADC growth supplement (10%; see column “M. abscessus 7H9”). MIC forM abscessus was determined a second time in standard cation adjusted Mueller Hinton broth without growth supplement (see colum “M. abscessus MH”). All other MIC were performed in standard cation adjusted Mueller Hinton broth, supplemented with Middlebrook ADC growth supplement (5%) for the slow growing mycobacteria (M. xenopi, M. kansasii and M. avium).
(§2) The following procedure applies to all species tested, except forM xenopi. From a fresh culture plate (from overnight to several days depending on the bacteria), cells were resuspended in 0.9% (w/v) saline solution and bacterial inoculum was prepared in the respective testing medium with 5×10^5 CFU/mL. For M. xenopi, the inoculum was prepared from a fresh liquid culture (7H9+ADC). The appropriate volumes of a 10 mg/mL compound solution were directly dispensed in the 96-well assay plate using a digital dispenser to create two-fold dilution series from 32 to 0.002 μg/mL final concentration for A. baumannii and S. aureus; from 16 to 0.016 μg/mL for M. abscessus and M. avium; and from 1 to 6×10^−5 μg/mL for M. kansasii and M. xenopi. 100 μL of bacterial suspension was finally added to the compounds. Plates were covered and incubated without shaking at 35° C. for 20 hours for A. baumanii and S. aureus; at 30° C. for 4 days for M. abscessus; and at 37° C. for 7 days (at least) for M. kansasii (covered with aluminum foil to avoid light exposure), M. avium and M. xenopi. Every experiment contained an antibiotic as quality control. MIC was determined visually as the lowest concentration of a compound that prevents visible growth of the bacteria.
(§3) The in vitro activity of compounds described herein was determined against S. aureus (UAMS-1625 strain), A. baumannii (HUMC1 strain), M. abscessus (ATCC 19977), M. kansasii (ATCC 12478), M. avium (ATCC 25291), and M. xenopi (ATCC 19250).

[2] = tested on: A. baumannii (HUMC1 strain); experiment: MIC by broth microdilution, A. baumannii (RPMI + 10% FCS); details: Acinetobacter baumannii, read-out: MIC A. baumannii
Description: as §1, §2, §3

[3] = tested on: M. abscessus (ATCC 19977); experiment: MIC by broth microdilution, M. abscessus in cation adjusted Mueller Hinton broth; details: Mycobacteroides abscessus, ATCC19977, 96 h, read-out: MIC M. abscessus MH
Description: as §1, §2, §3

[4] = tested on: S. aureus (UAMS-1625 strain); experiment: MIC by broth microdilution, S. aureus; details: Staphylococcus aureus, 20 h, read-out: MIC S. aureus
Description: as §1, §2, §3

[5] = HUMC1 strain, RPMI medium + 10% FCS, 35° C., 20 hours
[6] = ATCC 19977, cation adjusted Mueller Hinton broth without growth supplement, 30° C., 4 days

Structure (SMILES)	MIC [1]	MIC ([2]; 20 h)	MIC [3]	MIC [4]	MIC [2, 5]	MIC [3, 6]
CO[C@H]1/C=C/O[C@@]2(C)Oc3c(C)c(O)c4c(c3C2=O)C2=NC3(CCN(CC(C)C)CC3)NC2=C(NC(=O)/C(C)=C\C=C\[C@H](C)[C@H](O)[C@@H](C)[C@@H](O)[C@@H](C)[C@H](OC(=O)N2CCN(Cc3ccccc3)CC2)[C@@H]1C)C4=O [Compound 17]	0.125 µg/mL	0.125 µg/mL	1 µg/mL (≈ 0.993 µM)	0.25 µg/mL (≈ 0.248 µM)		
CO[C@H]1/C=C/O[C@@]2(C)Oc3c(C)c(O)c4c(c3C2=O)C2=NC3(CCN(CC(C)C)CC3)NC2=C(NC(=O)/C(C)=C\C=C\[C@H](C)[C@H](O)[C@@H](C)[C@@H](O)[C@@H](C)[C@H](OC(=O)N2CCN(CCC(C)C)CC2)[C@@H]1C)C4=O [Compound 52]				0.25 µg/mL (≈ 0.253 µM)	0.06 µg/mL	0.125 µg/mL (≈ 0.127 µM)
CO[C@H]1/C=C/O[C@@]2(C)Oc3c(C)c(O)c4c(c3C2=O)C2=NC3(CCN(CC(C)C)CC3)NC2=C(NC(=O)/C(C)=C\C=C\[C@H](C)[C@H](O)[C@@H](C)[C@@H](O)[C@@H](C)[C@H](OC(=O)N2CCN(CC(C)C)CC2)[C@@H]1C)C4=O [Compound 54]				0.125 µg/mL (≈ 0.128 µM)	0.03 µg/mL	0.06 µg/mL (≈ 0.0617 µM)
CO[C@H]1/C=C/O[C@@]2(C)Oc3c(C)c(O)c4c(c3C2=O)C2=NC3(CCN(CC(C)C)CC3)NC2=C(NC(=O)/C(C)=C\C=C\[C@H](C)[C@H](O)[C@@H](C)[C@@H](O)[C@@H](C)[C@H](OC(=O)NC2CCN(C)CC2)[C@@H]1C)C4=O [Compound 73]		0.001 µg/mL	1 µg/mL (≈ 1.06 µM)	0.03 µg/mL (≈ 0.0317 µM)		
CO[C@H]1/C=C/O[C@@]2(C)Oc3c(C)c(O)c4c(c3C2=O)C2=NC3(CCN(CC(C)C)CC3)NC2=C(NC(=O)/C(C)=C\C=C\[C@H](C)[C@H](O)[C@@H](C)[C@@H](O)[C@@H](C)[C@H](OC(=O)N2CCN(CCOCCO)CC2)[C@@H]1C)C4=O [Compound 44]				0.03 µg/mL (≈ 0.0298 µM)	≤ 0.016 µg/mL	4 µg/mL (≈ 3.98 µM)
CO[C@H]1/C=C/O[C@@]2(C)Oc3c(C)c(O)c4c(c3C2=O)C2=NC3(CCN(CC(C)C)CC3)NC2=C(NC(=O)/C(C)=C\C=C\[C@H](C)[C@H](O)[C@@H](C)[C@@H](O)[C@@H](C)[C@H](OC(=O)N2CCN(CCc3ccccc3)CC2)[C@@H]1C)C4=O [Compound 46]				0.25 µg/mL (≈ 0.245 µM)	0.25 µg/mL	0.5 µg/mL (≈ 0.49 µM)
CO[C@H]1/C=C/O[C@@]2(C)Oc3c(C)c(O)c4c(c3C2=O)C2=NC3(CCN(CC(C)C)CC3)NC2=C(NC(=O)/C(C)=C\C=C\[C@H](C)[C@H](O)[C@@H](C)[C@@H](O)[C@@H](C)[C@H](OC(=O)N2CCC(n3ccnc3)CC2)[C@@H]1C)C4=O [Compound 61]				0.03 µg/mL (≈ 0.0305 µM)	≤ 0.016 µg/mL	4 µg/mL (≈ 4.07 µM)
CO[C@H]1/C=C/O[C@@]2(C)Oc3c(C)c(O)c4c(c3C2=O)C2=NC3(CCN(CC(C)C)CC3)NC2=C(NC(=O)/C(C)=C\C=C\[C@H](C)[C@H](O)[C@@H](C)[C@@H](O)[C@@H](C)[C@H](OC(=O)N2CCCN(C3CCCC3)CC2)[C@@H]1C)C4=O [Compound 60]				0.06 µg/mL (≈ 0.06 µM)	≤ 0.016 µg/mL	0.25 µg/mL (≈ 0.25 µM)
CO[C@H]1/C=C/O[C@@]2(C)Oc3c(C)c(O)c4c(c3C2=O)C2=NC3(CCN(CC(C)C)CC3)NC2=C(NC(=O)/C(C)=C\C=C\[C@H](C)[C@H](O)[C@@H](C)[C@@H](O)[C@@H](C)[C@H](OC(=O)N2CCN(Cc3nccn3C)CC2)[C@@H]1C)C4=O [Compound 37]				0.03 µg/mL (≈ 0.0297 µM)	≤ 0.016 µg/mL	2 µg/mL (≈ 1.98 µM)
CO[C@H]1/C=C/O[C@@]2(C)Oc3c(C)c(O)c4c(c3C2=O)C2=NC3(CCN(CC(C)C)CC3)NC2=C(NC(=O)/C(C)=C\C=C\[C@H](C)[C@H](O)[C@@H](C)[C@@H](O)[C@@H](C)[C@H](OC(=O)NC2CCN(CC3CCCCC3)CC2)[C@@H]1C)C4=O [Compound 29]				0.125 µg/mL (≈ 0.122 µM)	≤ 0.016 µg/mL	0.25 µg/mL (≈ 0.243 µM)
CO[C@H]1/C=C/O[C@@]2(C)Oc3c(C)c(O)c4c(c3C2=O)C2=NC3(CCN(CC(C)C)CC3)NC2=C(NC(=O)/C(C)=C\C=C\[C@H](C)[C@H](O)[C@@H](C)[C@@H](O)[C@@H](C)[C@H](OC(=O)N2CCOC3(CCN(C)CC3)C2)[C@@H]1C)C4=O [Compound 24]				0.06 µg/mL (≈ 0.0599 µM)	≤ 0.016 µg/mL	2 µg/mL (≈ 2 µM)
CO[C@H]1/C=C/O[C@@]2(C)Oc3c(C)c(O)c4c(c3C2=O)C2=NC3(CCN(CC(C)C)CC3)NC2=C(NC(=O)/C(C)=C\C=C\[C@H](C)[C@H](O)[C@@H](C)[C@@H](O)[C@@H](C)[C@H](OC(=O)N2CCC3(CCN(CC5CCCCC5)C3)C2)[C@@H]1C)C4=O (stereo partly shown) [Compound 36]				0.25 µg/mL (≈ 0.237 µM)	0.06 µg/mL	0.125 µg/mL (≈ 0.119 µM)
CO[C@H]1/C=C/O[C@@]2(C)Oc3c(C)c(O)c4c(c3C2=O)C2=NC3(CCN(CC(C)C)CC3)NC2=C(NC(=O)/C(C)=C\C=C\[C@H](C)[C@H](O)[C@@H](C)[C@@H](O)[C@@H](C)[C@H](OC(=O)NC2CCN(C3CCOCC3)CC2)[C@@H]1C)C4=O [Compound 78]		≤ 0.001 µg/mL	2 µg/mL (≈ 1.97 µM)	0.06 µg/mL (≈ 0.0591 µM)		
CCN1CCC2(CC1)CCN(C(=O)O[C@H]1[C@H](C)[C@H](O)[C@H](C)[C@@H](O)[C@@H](C)/C=C/C=C(/C)C(=O)NC3=C4NC5(CCN(CC(C)C)CC5)N=C4c4c(c(O)c(C)c5c4C(=O)[C@@](C)(O/C=C/[C@H](OC)[C@H]1C)O5)C3=O)CC2 [Compound 68]				0.06 µg/mL (≈ 0.0592 µM)	0.003 µg/mL	1 µg/mL (≈ 0.987 µM)
CO[C@H]1/C=C/O[C@@]2(C)Oc3c(C)c(O)c4c(c3C2=O)C2=NC3(CCN(CC(C)C)CC3)NC2=C(NC(=O)/C(C)=C\C=C\[C@H](C)[C@H](O)[C@@H](C)[C@@H](O)[C@@H](C)[C@H](OC(=O)N2CCC3(CC2)CCN(C(C)C)CC3)[C@@H]1C)C4=O [Compound 69]				0.125 µg/mL (≈ 0.122 µM)	0.002 µg/mL	1 µg/mL (≈ 0.973 µM)
CO[C@H]1/C=C/O[C@@]2(C)Oc3c(C)c(O)c4c(c3C2=O)C2=NC3(CCN(CC(C)C)CC3)NC2=C(NC(=O)/C(C)=C\C=C\[C@H](C)[C@H](O)[C@@H](C)[C@@H](O)[C@@H](C)[C@H](OC(=O)N2CCN(Cc3c(C)noc3C)CC2)[C@@H]1C)C4=O [Compound 38]				0.125 µg/mL (≈ 0.122 µM)	≤ 0.016 µg/mL	1 µg/mL (≈ 0.974 µM)
CO[C@H]1/C=C/O[C@@]2(C)Oc3c(C)c(O)c4c(c3C2=O)C2=NC3(CCN(CC(C)C)CC3)NC2=C(NC(=O)/C(C)=C\C=C\[C@H](C)[C@H](O)[C@@H](C)[C@@H](O)[C@@H](C)[C@H](OC(=O)N2C[C@@H]3C[C@H]2CN3CC2CCCCC2)[C@@H]1C)C4=O [Compound 58]				0.125 µg/mL (≈ 0.122 µM)	0.03 µg/mL	0.125 µg/mL (≈ 0.122 µM)
CO[C@H]1/C=C/O[C@@]2(C)Oc3c(C)c(O)c4c(c3C2=O)C2=NC3(CCN(CC(C)C)CC3)NC2=C(NC(=O)/C(C)=C\C=C\[C@H](C)[C@H](O)[C@@H](C)[C@@H](O)[C@@H](C)[C@H](OC(=O)N2CCN(CC(C)(C)C)CC2)[C@@H]1C)C4=O [Compound 49]				0.5 µg/mL (≈ 0.506 µM)	1 µg/mL	0.125 µg/mL (≈ 0.127 µM)
CO[C@H]1/C=C/O[C@@]2(C)Oc3c(C)c(O)c4c(c3C2=O)C2=NC3(CCN(CC(C)C)CC3)NC2=C(NC(=O)/C(C)=C\C=C\[C@H](C)[C@H](O)[C@@H](C)[C@@H](O)[C@@H](C)[C@H](OC(=O)N2CCN(CCO)CC2)[C@@H]1C)C4=O [Compound 43]				0.06 µg/mL (≈ 0.0624 µM)	≤ 0.016 µg/mL	8 µg/mL (≈ 8.32 µM)
